Entries after “also recorded” stand apart in the source; their conditions may differ. Read-outs that look alike come from different tables or passages of the source.
Tests used:
MCF7 (breast) = assay: Microcytoxicity assay (SRB), MCF7; format: cell-based, human; details: for In vitro cytotoxic potency: 4 days, SRB
Description: (§1) (i) Human tumor cell lines. Human tumor cell lines representative of major forms of human cancer for use in the microcytoxicity assay include MCF7 (breast), SW480 (colon), HL-60 (promyelocytic leukemia), MiaPaCa-2 (pancreatic), U937 (histiocytic lymphoma), and 8226 (myeloma) (see Table 5). One drug resistant variant of 8226 was also included: 8226/DOX40, an mdr-1-mediated drug resistant cell line. Other matched pairs may also be added. All lines have known karyotypes that are checked at least annually for quality control.
(§2) Cells were grown in suspension in RPMI 1640 medium supplemented with 5% fetal bovine serum, 1% (v/v) penicillin (100 unit/ml), streptomycin (100 μg/ml), and 1% (v/v) L-glutamine (all from GIBCO, Grand Island, N.Y.) at 37° C. in 5% CO2, 95% air atmosphere, and were passaged once every six days. Additionally, these lines are capable of in vivo growth in SCID mice for in vivo confirmatory studies. In initial experiments, two diastereomeric pairs of (±)-psorospermin methyl ethers in a series of cell lines were evaluated.
(§3) (ii) Microcytoxicity assay. A standard 96-well microcytoxicity assay is performed by plating each cell line in a microtiter plate at 4,000-10,000 cells per well (depending on cell doubling time), six replicate wells per drug dose. All plates are incubated for 4 days at 37° C. in a humidified tissue culture incubator containing 5% CO2 in air. The endpoint determination uses sulforhodamine blue (SRB) and spectrophotometric determination of protein content of each well as reflected by SRB staining. IC50 values were calculated by linear regression analysis.

SW480 (colon) = assay: Microcytoxicity assay (SRB), SW480; format: cell-based, human; details: 4 days
Description: as §1, §2
(§4) (ii) Microcytoxicity assay. A standard 96-well microcytoxicity assay is performed by plating each cell line in a microtiter plate at 4,000-10,000 cells per well (depending on cell doubling time), six replicate wells per drug dose. […] IC50 values were calculated by linear regression analysis.

[1] = system: HL-60 (promyelocytic leukemia); assay: Microcytoxicity assay (SRB), HL-60; format: cell-based, human
Description: as §1, §2, §3

PC-3N = assay: Microcytoxicity assay (SRB), PC-3N; format: cell-based, human; details: Prostate, N-cadherin positive
Experimental: as §2, §3

[2] = system: HL60/AR (adriamycin resistant); assay: Microcytoxicity assay (SRB), HL60/AR; format: cell-based, human; details: Acute promyelocytic leukemia
Experimental: as §2, §3

[3] = system: A2780/CP70 (cisplatin resistant); assay: Microcytoxicity assay (SRB), A2780/CP70; format: cell-based, human; details: Ovarian
Experimental: as §2, §3

[4] = system: U937 (histiocytic lymphoma); assay: Microcytoxicity assay (SRB), U937; format: cell-based, human; details: 4 days
Description: as §1, §2, §4

K562 = assay: Microcytoxicity assay (SRB), K562; format: cell-based, human; details: Chronic myelogenous leukemia
Experimental: as §2, §3

LnCAP = assay: Microcytoxicity assay (SRB), LnCAP; format: cell-based, human; details: Prostate, lymph node mets
Experimental: as §2, §3

8226 (myeloma) = assay: Microcytoxicity assay (SRB), 8226; format: cell-based, human; details: 4 days
Description: as §1, §2, §4

PC-3 = assay: Microcytoxicity assay (SRB), PC-3; format: cell-based, human; details: Prostate, adenocarcinoma, mets
Experimental: as §2, §3

PEAZ-1 = assay: Microcytoxicity assay (SRB), PEAZ-1; format: cell-based, human; details: Prostate, primary
Experimental: as §2, §3

[5] = system: K562/R (daunorubicin resistant); assay: Microcytoxicity assay (SRB), K562/R; format: cell-based, human; details: Chronic myelogenous leukemia
Experimental: as §2, §3

DU 145 = assay: Microcytoxicity assay (SRB), DU 145; format: cell-based, human
Experimental: as §2, §3

[6] = system: 8226/DOX40, an mdr-1-mediated drug resistant cell line; assay: Microcytoxicity assay (SRB), 8226/DOX40; format: cell-based, human; details: 4 days
Description: as §1, §2, §4

MiaPaCa-2 (pancreatic) = assay: Microcytoxicity assay (SRB), MiaPaCa-2; format: cell-based, human; details: for In vitro cytotoxic potency: MiaPaCa-2, 4 days, SRB
Description: as §1, §2, §3

tumor cell lines = assay: Microcytoxicity assay, all tumor cell lines tested; format: cell-based, human; details: on average over the cell lines of Table 5
Description: as §1, §2, §4

[7] = system: Acute promyelocytic leukemia; assay: Microcytoxicity assay (SRB), cell line not given; format: cell-based, human; details: cell line cell empty; origin Acute promyelocytic leukemia
Experimental: as §2, §3

MCF 10A = assay: Microcytoxicity assay (SRB), MCF 10A; format: cell-based; details: Breast, normal mammary
Experimental: as §2, §3

A2780 = assay: Microcytoxicity assay (SRB), A2780; format: cell-based, human; details: Ovarian
Experimental: as §2, §3

P388 mouse leukemia = details: cited from earlier work
topoisomerase II = topoisomerase II (Drosophila melanogaster, UniProt P15348); assay: Topoisomerase II-mediated DNA cleavage; format: biochemical
Experimental: (§5) In the absence of psorospermin, the intensity of the topoisomerase II-mediated DNA cleavage is much less at site B than at site A. As the concentration of psorospermin was increased, the topoisomerase II-mediated DNA cleavage at site A was decreased, while the cleavage at site B was enhanced. The psorospermin-induced DNA cleavage by topoisomerase II reaches a maximum of 3-fold at a 10 μM drug concentration (FIG. 4). […] On the other hand, the cleaved complex formation at site A was reduced in the presence of psorospermin, despite the 3-fold enhancement of psorospermin alkylation at site A.
(§6) Sites A and B are three base pairs apart from each other, and Drosophila topoisomerase II binds a region of approximately 23 base pairs, based on the results of a DNase I footprinting experiment (Lee et al, 1989). Therefore, it is likely that sites A and B are competing with each other for topoisomerase II binding, and the 25-fold enhancement of the psorospermin alkylation at site B dominates this competition. FIG. 5 summarizes the three possible biochemical consequences of the site-directed alkylation of DNA by psorospermin. Because psorospermin is a 7-alkyl adduct, depurination occurs slowly at room temperature over a period of several days.

[8] = molecular target: topoisomerase II-DNA complex (Drosophila melanogaster, UniProt P15348); assay: Topoisomerase II site-directed alkylation of DNA; format: biochemical; details: in the presence of topoisomerase II
Experimental: as §5, §6

various tumor cell lines = details: cited from earlier work
HT-29 = assay: Microcytoxicity assay (SRB), HT-29; format: cell-based, human
Experimental: as §3

Sequence of topoisomerase II-DNA complex (P15348 whole entry, one chain of several): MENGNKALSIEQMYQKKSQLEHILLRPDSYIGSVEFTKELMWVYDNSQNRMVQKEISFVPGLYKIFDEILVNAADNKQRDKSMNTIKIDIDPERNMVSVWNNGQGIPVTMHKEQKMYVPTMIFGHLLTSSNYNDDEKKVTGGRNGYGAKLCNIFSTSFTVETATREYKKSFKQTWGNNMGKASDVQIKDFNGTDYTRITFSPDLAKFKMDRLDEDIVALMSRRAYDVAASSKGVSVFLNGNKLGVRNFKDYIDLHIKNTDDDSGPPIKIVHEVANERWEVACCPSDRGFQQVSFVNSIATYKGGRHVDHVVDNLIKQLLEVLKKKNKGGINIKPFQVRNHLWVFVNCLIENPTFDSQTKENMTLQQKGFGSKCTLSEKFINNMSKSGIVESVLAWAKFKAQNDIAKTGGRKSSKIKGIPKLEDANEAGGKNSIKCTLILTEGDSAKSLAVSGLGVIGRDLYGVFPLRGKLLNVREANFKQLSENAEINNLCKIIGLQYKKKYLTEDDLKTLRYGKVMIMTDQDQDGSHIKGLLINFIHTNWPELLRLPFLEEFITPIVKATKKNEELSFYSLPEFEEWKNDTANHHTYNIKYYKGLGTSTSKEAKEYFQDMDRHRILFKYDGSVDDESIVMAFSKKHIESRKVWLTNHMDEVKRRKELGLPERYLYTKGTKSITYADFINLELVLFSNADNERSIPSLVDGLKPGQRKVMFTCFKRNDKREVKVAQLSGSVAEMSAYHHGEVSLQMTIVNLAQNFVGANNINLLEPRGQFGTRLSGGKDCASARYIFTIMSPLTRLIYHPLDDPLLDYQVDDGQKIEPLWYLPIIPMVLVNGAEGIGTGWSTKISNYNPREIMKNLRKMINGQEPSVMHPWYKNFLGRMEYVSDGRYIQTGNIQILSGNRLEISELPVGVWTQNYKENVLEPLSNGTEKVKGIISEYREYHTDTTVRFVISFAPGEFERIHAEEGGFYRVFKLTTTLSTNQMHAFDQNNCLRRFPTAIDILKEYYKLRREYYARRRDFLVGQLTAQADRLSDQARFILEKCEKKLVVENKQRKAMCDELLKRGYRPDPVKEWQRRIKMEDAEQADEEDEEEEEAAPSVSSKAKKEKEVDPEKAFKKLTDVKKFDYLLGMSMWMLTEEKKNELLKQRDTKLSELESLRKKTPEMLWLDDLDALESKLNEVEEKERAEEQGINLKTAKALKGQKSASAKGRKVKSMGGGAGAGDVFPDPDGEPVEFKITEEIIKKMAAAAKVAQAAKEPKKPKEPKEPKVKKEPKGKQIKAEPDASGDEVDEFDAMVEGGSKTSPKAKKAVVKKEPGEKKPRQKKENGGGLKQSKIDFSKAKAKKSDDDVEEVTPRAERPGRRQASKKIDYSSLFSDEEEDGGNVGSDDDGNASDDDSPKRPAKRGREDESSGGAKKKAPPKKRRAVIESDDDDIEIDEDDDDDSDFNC
Sequence of topoisomerase II (P15348 whole entry): as the sequence (P15348 whole entry, one chain of several) above

COc1c2c(c3oc4ccccc4c(=O)c3c1OC)CC([C@@]1(C)CO1)O2 (mixture of isomers) [Compound A, (±)-(2′R,3′R) (2′S,3′S) psorospermin methyl ether]
In vitro cytotoxic potency (MCF7 (breast)): 0.28 µg/mL
IC50 (MCF7 (breast); Breast, adenocarcinoma): 0.61 µM
In vitro cytotoxic potency (SW480 (colon)): 0.24 µg/mL
IC50 ([1]; HL60, origin printed: promyelocytic leukemia): 0.036 µM
In vitro cytotoxic potency ([1]; HL-60, 4 days, SRB): 0.026 µg/mL
IC50 (PC-3N): 0.13 µM
IC50 [2]: 0.012 µM
IC50 [3]: 0.473 µM
In vitro cytotoxic potency [4]: 0.062 µg/mL
IC50 (K562): 0.036 µM
IC50 (LnCAP): 0.46 µM
In vitro cytotoxic potency (8226 (myeloma)): 0.21 µg/mL
IC50 (PC-3): 0.28 µM
IC50 (PEAZ-1): 0.16 µM
IC50 [5]: 0.024 µM
IC50 (DU 145; DU 145, Prostate, brain mets, read-out: IC50 Values): 0.304 µM
In vitro cytotoxic potency [6]: 0.06 µg/mL
IC50 (MiaPaCa-2 (pancreatic); MIA PaCa-2, pancreas, read-out: IC50 Values): 0.18 µM
activity in the pancreatic cell line MiaPaCa (MiaPaCa-2 (pancreatic); MiaPaCa): remarkable activity
In vitro cytotoxic potency (MiaPaCa-2 (pancreatic)): 0.26 µg/mL
activity in MiaPaCa compared with gemcytabine (MiaPaCa-2 (pancreatic); MiaPaCa, versus gemcytabine): as good or better
effectiveness relative to Compound B (tumor cell lines): more potent; also recorded: twice as effective
IC50 [7]: 0.011 µM
IC50 (MCF 10A): 5.35 µM
IC50 (A2780): 0.063 µM

COc1cc2c(c3oc4c(O)cccc4c(=O)c13)C[C@H]([C@@]1(C)CO1)O2 [psorospermin]
activity in vivo against P388 mouse leukemia (P388 mouse leukemia): significant activity
topoisomerase II-mediated DNA cleavage at site A (topoisomerase II; site A, as the concentration of psorospermin was increased): decreased
psorospermin-induced DNA cleavage by topoisomerase II, maximum (topoisomerase II; site B, 10 μM drug concentration): 3 fold
enhancement of psorospermin alkylation at site A ([8]; site A): 3 fold
enhancement of the psorospermin alkylation at site B ([8]; site B): 25 fold
activity in vitro against various tumor cell lines (various tumor cell lines): significant activity

(2R,3S)-psorospermin methyl ether [Compound 117]
IC50 (HT-29): 0.7 µM
IC50 (DU 145; DU-145, read-out: IC50): 0.4 µM
IC50 (MiaPaCa-2 (pancreatic); MiaPaCa, read-out: IC50): 0.4 µM

(2S,3R)-psorospermin methyl ether [Compound 116]
IC50 (HT-29): 7 µM
IC50 (DU 145; DU-145, read-out: IC50): 4 µM
IC50 (MiaPaCa-2 (pancreatic); MiaPaCa, read-out: IC50): 4 µM

(±)-(2′R,3′S) (2′S,3′R) psorospermin methyl ether [Compound B]
In vitro cytotoxic potency (MCF7 (breast)): 0.74 µg/mL
In vitro cytotoxic potency (SW480 (colon)): 0.36 µg/mL
sensitivity of HL-60 ([1]; HL-60, positive for c-myc and BCL-2): highly sensitive
In vitro cytotoxic potency (8226 (myeloma)): 0.33 µg/mL
In vitro cytotoxic potency [6]: 0.30 µg/mL
In vitro cytotoxic potency (MiaPaCa-2 (pancreatic)): 0.48 µg/mL

Reference: patent US7244760B2, “Methods for preparation and use of psorospermin analogs” (Board of Regents, The University of Texas System, priority 2001, dated 2007)
